Experimental data as given in ChEMBL document CHEMBL1146207, “Gypsophin: a novel alpha-glucosidase inhibitory cyclic peptide from the roots of Gypsophila oldhamiana” (Bioorg Med Chem Lett, 2007).

Target: Sucrase-isomaltase, intestinal (Homo sapiens, UniProt P14410)
Experiment: Inhibition of alpha-glucosidase by enzyme inhibition assay

Chain of Sucrase-isomaltase, intestinal (P14410 2-1007 limits assumed): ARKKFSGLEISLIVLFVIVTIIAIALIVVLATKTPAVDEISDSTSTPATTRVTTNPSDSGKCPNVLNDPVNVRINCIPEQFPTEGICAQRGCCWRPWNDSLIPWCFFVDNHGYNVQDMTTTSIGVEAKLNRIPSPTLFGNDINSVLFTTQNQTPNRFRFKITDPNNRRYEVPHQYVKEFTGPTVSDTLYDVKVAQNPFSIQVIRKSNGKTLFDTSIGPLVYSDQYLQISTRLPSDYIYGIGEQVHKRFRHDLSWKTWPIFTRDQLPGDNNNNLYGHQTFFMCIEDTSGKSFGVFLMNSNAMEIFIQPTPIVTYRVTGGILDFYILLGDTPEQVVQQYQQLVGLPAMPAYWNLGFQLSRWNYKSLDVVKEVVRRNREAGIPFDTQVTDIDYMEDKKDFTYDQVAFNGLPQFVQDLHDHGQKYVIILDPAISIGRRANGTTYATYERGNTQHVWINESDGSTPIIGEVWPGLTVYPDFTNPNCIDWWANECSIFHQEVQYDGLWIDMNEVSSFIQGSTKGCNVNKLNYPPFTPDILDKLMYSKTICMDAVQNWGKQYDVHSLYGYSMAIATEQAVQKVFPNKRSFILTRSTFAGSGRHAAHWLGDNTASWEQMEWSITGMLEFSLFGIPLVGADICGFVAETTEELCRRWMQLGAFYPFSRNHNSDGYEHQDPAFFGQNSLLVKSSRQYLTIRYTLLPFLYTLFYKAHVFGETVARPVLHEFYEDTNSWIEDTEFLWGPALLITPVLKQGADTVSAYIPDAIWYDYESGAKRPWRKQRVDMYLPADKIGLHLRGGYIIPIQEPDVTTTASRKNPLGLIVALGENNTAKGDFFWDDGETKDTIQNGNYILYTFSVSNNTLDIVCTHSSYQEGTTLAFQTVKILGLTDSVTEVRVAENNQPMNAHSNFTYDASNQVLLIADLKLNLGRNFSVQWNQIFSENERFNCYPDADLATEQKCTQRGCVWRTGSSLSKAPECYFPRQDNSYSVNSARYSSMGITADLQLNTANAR
Chain of Sucrase-isomaltase, intestinal (P14410 1008-1827 limits assumed): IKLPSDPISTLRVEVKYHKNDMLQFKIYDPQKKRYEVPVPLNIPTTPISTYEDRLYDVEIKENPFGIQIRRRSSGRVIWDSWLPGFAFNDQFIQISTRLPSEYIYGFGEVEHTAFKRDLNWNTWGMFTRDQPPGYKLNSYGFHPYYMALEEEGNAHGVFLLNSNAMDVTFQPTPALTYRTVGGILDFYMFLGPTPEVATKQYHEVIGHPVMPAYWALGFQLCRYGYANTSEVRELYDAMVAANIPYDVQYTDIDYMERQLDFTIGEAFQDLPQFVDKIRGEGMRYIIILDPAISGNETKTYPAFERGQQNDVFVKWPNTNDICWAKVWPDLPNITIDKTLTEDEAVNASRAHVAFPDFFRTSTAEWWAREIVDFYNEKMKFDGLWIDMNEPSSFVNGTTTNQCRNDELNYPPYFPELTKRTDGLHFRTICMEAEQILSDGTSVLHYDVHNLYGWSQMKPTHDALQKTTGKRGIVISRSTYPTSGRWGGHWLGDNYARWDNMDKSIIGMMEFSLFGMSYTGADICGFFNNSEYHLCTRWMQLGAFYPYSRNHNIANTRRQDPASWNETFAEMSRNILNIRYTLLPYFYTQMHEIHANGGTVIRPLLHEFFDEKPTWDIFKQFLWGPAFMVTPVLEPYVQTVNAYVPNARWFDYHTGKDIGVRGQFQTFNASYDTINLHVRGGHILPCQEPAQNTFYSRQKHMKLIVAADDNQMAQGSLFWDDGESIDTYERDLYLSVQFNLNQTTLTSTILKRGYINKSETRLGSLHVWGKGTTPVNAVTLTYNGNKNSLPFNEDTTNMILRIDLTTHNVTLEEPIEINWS

IC50: 305 µM
SMILES: CC[C@H](C)[C@@H]1NC(=O)[C@H](Cc2ccccc2)N2C(=O)C[C@H](NC(=O)[C@H](Cc3ccccc3)NC(=O)CNC(=O)[C@@H]3CCCN3C(=O)[C@H](CC(C)C)NC1=O)C2=O [GYPSOPHIN]
